Reference: PubChem BioAssay AID1963451 (Molecular Pharmacology Branch, DTP, NCI, 2024)
pIC50: −log10 of the molar value. Several values for one entry are separate records, joined by “and”; a condition that tells them apart may be missing. Identical values can stand only once.

System: 521955-158-R6-J3-PDC complex spheroid growth, % test/control
Assay: Anticancer human tumor 521955-158-R6-J3-PDC patient-derived pancreatic carcinoma cell line growth inhibition [Asc]
Conditions: for viability, T/C: stronger effect = lower value
Method in brief: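 Tumor cells were grown as complex spheroids with human endothelial cells (HUVEC) and human mesenchymal stem cells as stroma. Agents were tested alone and in combination, in half-log steps down from the clinical Cmax, or from 10 microM where Cmax was unknown.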

[1] = curve of first compound, second compound 0.0316 µM
[2] = curve of first compound, second compound 0.1 µM
[3] = curve of first compound, second compound 0.316 µM
[4] = curve of first compound, second compound 1 µM
[5] = second compound 0.0316 µM, first compound 0.0316 µM
[6] = second compound 0.0316 µM, first compound 0.1 µM
[7] = second compound 0.0316 µM, first compound 0.316 µM
[8] = second compound 0.0316 µM, first compound 1 µM
[9] = second compound 0.1 µM, first compound 0.0316 µM
[10] = second compound 0.1 µM, first compound 0.1 µM
[11] = second compound 0.1 µM, first compound 0.316 µM
[12] = second compound 0.1 µM, first compound 1 µM
[13] = second compound 0.316 µM, first compound 0.0316 µM
[14] = second compound 0.316 µM, first compound 0.1 µM
[15] = second compound 0.316 µM, first compound 0.316 µM
[16] = second compound 0.316 µM, first compound 1 µM
[17] = second compound 1 µM, first compound 0.0316 µM
[18] = second compound 1 µM, first compound 0.1 µM
[19] = second compound 1 µM, first compound 0.316 µM
[20] = second compound 1 µM, first compound 1 µM
[21] = curve of first compound, second compound 3.16 µM
[22] = curve of first compound, second compound 10 µM
[23] = second compound 0.0316 µM, first compound 0.00316 µM
[24] = second compound 0.0316 µM, first compound 0.01 µM
[25] = second compound 0.1 µM, first compound 0.00316 µM
[26] = second compound 0.1 µM, first compound 0.01 µM
[27] = second compound 0.316 µM, first compound 0.00316 µM
[28] = second compound 0.316 µM, first compound 0.01 µM
[29] = second compound 1 µM, first compound 0.00316 µM
[30] = second compound 1 µM, first compound 0.01 µM
[31] = second compound 3.16 µM, first compound 0.00316 µM
[32] = second compound 3.16 µM, first compound 0.01 µM
[33] = second compound 3.16 µM, first compound 0.0316 µM
[34] = second compound 3.16 µM, first compound 0.1 µM
[35] = second compound 10 µM, first compound 0.00316 µM
[36] = second compound 10 µM, first compound 0.01 µM
[37] = second compound 10 µM, first compound 0.0316 µM
[38] = second compound 10 µM, first compound 0.1 µM
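Also: spheroids exposed to compounds for 7 days.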
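For viability, T/C in this document: 100% = DMSO vehicle control wells.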

C#Cc1c(F)ccc2cc(O)cc(-c3ncc4c(N5CC6CCC(C5)N6)nc(OCC56CCCN5CC(F)C6)nc4c3F)c12 (stereo not drawn) + CNC(C)C(=O)NC1CN(S(=O)(=O)c2cccc(S(=O)(=O)N3CCC4CCC(C(=O)NC(c5ccccc5)c5ccccc5)N4C(=O)C(NC(=O)C(C)NC)C3)c2)CCC2CCC(C(=O)NC(c3ccccc3)c3ccccc3)N2C1=O
pIC50 (curve of first compound, second compound 0.00316 µM): 6.94 | pIC50 (curve of first compound, second compound 0.01 µM): 7.20 | pIC50 [1]: 7.25 | pIC50 [2]: 7.15 | pIC50 [3]: 7.38 | pIC50 [4]: > 7.50 | viability, T/C (second compound 0.00316 µM, first compound 0.0316 µM): 57.4% | viability, T/C (second compound 0.00316 µM, first compound 0.1 µM): 45.8% | viability, T/C (second compound 0.00316 µM, first compound 0.316 µM): 46.8% | viability, T/C (second compound 0.00316 µM, first compound 1 µM): 38.4% | viability, T/C (second compound 0.00316 µM, first compound 3.16 µM): 36.3% | viability, T/C (second compound 0.00316 µM, first compound 10 µM): 21.4% | viability, T/C (second compound 0.01 µM, first compound 0.0316 µM): 56.6% | viability, T/C (second compound 0.01 µM, first compound 0.1 µM): 44.7% | viability, T/C (second compound 0.01 µM, first compound 0.316 µM): 38.4% | viability, T/C (second compound 0.01 µM, first compound 1 µM): 34.7% | viability, T/C (second compound 0.01 µM, first compound 3.16 µM): 37% | viability, T/C (second compound 0.01 µM, first compound 10 µM): 25.1% | viability, T/C [5]: 54.9% | viability, T/C [6]: 42.8% | viability, T/C [7]: 42% | viability, T/C [8]: 33.1% | viability, T/C (second compound 0.0316 µM, first compound 3.16 µM): 25.6% | viability, T/C (second compound 0.0316 µM, first compound 10 µM): 24.9% | viability, T/C [9]: 56.5% | viability, T/C [10]: 46% | viability, T/C [11]: 38.7% | viability, T/C [12]: 38.7% | viability, T/C (second compound 0.1 µM, first compound 3.16 µM): 33.6% | viability, T/C (second compound 0.1 µM, first compound 10 µM): 24.8% | viability, T/C [13]: 54.4% | viability, T/C [14]: 37% | viability, T/C [15]: 33.1% | viability, T/C [16]: 29.7% | viability, T/C (second compound 0.316 µM, first compound 3.16 µM): 33.6% | viability, T/C (second compound 0.316 µM, first compound 10 µM): 18.3% | viability, T/C [17]: 44.9% | viability, T/C [18]: 41.7% | viability, T/C [19]: 43.5% | viability, T/C [20]: 30.7% | viability, T/C (second compound 1 µM, first compound 3.16 µM): 30.4% | viability, T/C (second compound 1 µM, first compound 10 µM): 21.9%

Cn1ncnc1[C@H]1c2n[nH]c(=O)c3cc(F)cc(c23)N[C@@H]1c1ccc(F)cc1
viability, T/C (compound 0.000316 µM): 100% and 86% and 85.9% | viability, T/C (compound 0.001 µM): 117% and 105% and 93.7% | viability, T/C (compound 0.00316 µM): 108% and 97.1% and 83.8% | viability, T/C (compound 0.01 µM): 106% and 116% and 114% | viability, T/C (compound 0.0316 µM): 97.9% and 96.4% and 84.3% | viability, T/C (compound 0.1 µM): 95.5% and 85.7% and 96.4% | pIC50 (curve of compound): < 7.00

CCN1CCN(Cc2ccc(Nc3ncc(F)c(-c4cc(F)c5nc(C)n(C(C)C)c5c4)n3)nc2)CC1 + Cc1c(S(C)(=O)=O)c(-c2cc(F)cc(N3CCN(c4ccc(NS(=O)(=O)c5ccc(NC(CCN6CCC(C(=O)OCCCP(=O)(O)O)CC6)CSc6ccccc6)c(S(=O)(=O)C(F)(F)F)c5)cc4)CC3)c2)c(-c2ccc(Cl)cc2)n1C(C)C
pIC50 [1]: < 6.00 | pIC50 [2]: < 6.00 | pIC50 [3]: > 8.50 | pIC50 [4]: > 8.50 | pIC50 [21]: > 8.50 | pIC50 [22]: > 8.50 | viability, T/C [23]: 96.2% | viability, T/C [24]: 81% | viability, T/C [5]: 73.6% | viability, T/C [6]: 71.9% | viability, T/C [7]: 67.6% | viability, T/C [8]: 84.4% | viability, T/C [25]: 72.3% | viability, T/C [26]: 57.5% | viability, T/C [9]: 62% | viability, T/C [10]: 63.1% | viability, T/C [11]: 82.1% | viability, T/C [12]: 73.5% | viability, T/C [27]: 53% | viability, T/C [28]: 49% | viability, T/C [13]: 43.9% | viability, T/C [14]: 53.6% | viability, T/C [15]: 49.4% | viability, T/C [16]: 53.9% | viability, T/C [29]: 35.6% | viability, T/C [30]: 39.1% | viability, T/C [17]: 29.4% | viability, T/C [18]: 37.3% | viability, T/C [19]: 34.2% | viability, T/C [20]: 41.1% | viability, T/C [31]: 21.4% | viability, T/C [32]: 18.7% | viability, T/C [33]: 18.4% | viability, T/C [34]: 19.4% | viability, T/C (second compound 3.16 µM, first compound 0.316 µM): 24.2% | viability, T/C (second compound 3.16 µM, first compound 1 µM): 26.1% | viability, T/C [35]: 30.4% | viability, T/C [36]: 16.3% | viability, T/C [37]: 15% | viability, T/C [38]: 15.2% | viability, T/C (second compound 10 µM, first compound 0.316 µM): 26.6% | viability, T/C (second compound 10 µM, first compound 1 µM): 28.9%

NC1CCC(NC2CC2c2ccccc2)CC1 (stereo not drawn) + Cc1c(S(C)(=O)=O)c(-c2cc(F)cc(N3CCN(c4ccc(NS(=O)(=O)c5ccc(NC(CCN6CCC(C(=O)OCCCP(=O)(O)O)CC6)CSc6ccccc6)c(S(=O)(=O)C(F)(F)F)c5)cc4)CC3)c2)c(-c2ccc(Cl)cc2)n1C(C)C
pIC50 [1]: < 7.00 | pIC50 [2]: < 7.00 | pIC50 [3]: > 9.50 | pIC50 [4]: > 9.50 | pIC50 [21]: > 9.50 | pIC50 [22]: > 9.50 | viability, T/C (second compound 0.0316 µM, first compound 0.000316 µM): 83.7% | viability, T/C (second compound 0.0316 µM, first compound 0.001 µM): 97.1% | viability, T/C [23]: 80.8% | viability, T/C [24]: 92.7% | viability, T/C [5]: 96.6% | viability, T/C [6]: 90.4% | viability, T/C (second compound 0.1 µM, first compound 0.000316 µM): 97.7% | viability, T/C (second compound 0.1 µM, first compound 0.001 µM): 94.7% | viability, T/C [25]: 87.4% | viability, T/C [26]: 74.8% | viability, T/C [9]: 79.1% | viability, T/C [10]: 73.3% | viability, T/C (second compound 0.316 µM, first compound 0.000316 µM): 47.1% | viability, T/C (second compound 0.316 µM, first compound 0.001 µM): 51.2% | viability, T/C [27]: 55.4% | viability, T/C [28]: 61.9% | viability, T/C [13]: 43.9% | viability, T/C [14]: 63.8% | viability, T/C (second compound 1 µM, first compound 0.000316 µM): 29% | viability, T/C (second compound 1 µM, first compound 0.001 µM): 36.1% | viability, T/C [29]: 38.5% | viability, T/C [30]: 29.1% | viability, T/C [17]: 45.4% | viability, T/C [18]: 36.6% | viability, T/C (second compound 3.16 µM, first compound 0.000316 µM): 16.8% | viability, T/C (second compound 3.16 µM, first compound 0.001 µM): 19.4% | viability, T/C [31]: 20% | viability, T/C [32]: 20.5% | viability, T/C [33]: 20.6% | viability, T/C [34]: 18.4% | viability, T/C (second compound 10 µM, first compound 0.000316 µM): 16.8% | viability, T/C (second compound 10 µM, first compound 0.001 µM): 11.2% | viability, T/C [35]: 16.9% | viability, T/C [36]: 11.9% | viability, T/C [37]: 11.8% | viability, T/C [38]: 11.5%
